Common to all, as to format: cell-based
Holding throughout (details): single compound

The test system of test [1] is Glomerella lagenarium Syn. Colletotrichum lagenarium. The test is described as follows: Glomerella lagenarium growth inhibition in nutrient broth (microtiter plate, photometric, 72 hrs, 620 nm). As for the experimental part: Glomerella lagenarium Syn. Colletotrichum lagenarium (Anthracnose of Cucurbits); Conidia of the fungus from cryogenic storage were directly mixed into nutrient broth (PDB potato dextrose broth). A DMSO solution of the test compounds was placed into a microtiter plate (96-well format) and the nutrient broth containing the fungal spores was added to it. The test plates were incubated at 24 C and the inhibition of growth was determined photometrically after 72 hrs at 620 nm.

Test [2] deals with Sclerotinia sclerotiorum. In words: Sclerotinia sclerotiorum growth inhibition in nutrient broth (microtiter plate, photometric, 72 hrs, 620 nm). As for the experimental part: Sclerotinia sclerotiorum (Cottony Rot, White Mold, Etc.); Mycelial fragments of the fungus prepared from a fresh liquid culture were directly mixed into nutrient broth (PDB potato dextrose broth). A DMSO solution of the test compounds was placed into a microtiter plate (96-well format) and the nutrient broth containing the fungal spores was added to it. The test plates were incubated at 24 C and the inhibition of growth was determined photometrically after 72 hrs at 620 nm

For test [3], the system named is Mycosphaerella arachidis Syn. Cercospora arachidicola. In words: Mycosphaerella arachidis growth inhibition in nutrient broth (microtiter plate, photometric, 5-6 days, 620 nm). As for the experimental part:
Mycosphaerella arachidis Syn. Cercospora arachidicola (Brown Leaf Spot of Peanut): Conidia of the fungus from cryogenic storage were directly mixed into nutrient broth (PDB potato dextrose broth). A DMSO solution of the test compounds was placed into a microtiter plate (96-well format) and the nutrient broth containing the fungal spores was added to it. The test plates were incubated at 24 C and the inhibition of growth was determined photometrically after 5-6 days at 620 nm

Test [4] deals with Septoria tritici. The test is described as follows: Septoria tritici growth inhibition in nutrient broth (microtiter plate, photometric, 72 hrs). As for the experimental part: Septoria tritici (Leaf Blotch): Conidia of the fungus from cryogenic storage were directly mixed into nutrient broth (PDB potato dextrose broth). A DMSO solution of the test compounds was placed into a microtiter plate (96-well format) and the nutrient broth containing the fungal spores was added to it. The test plates were incubated at 24 C and the inhibition of growth was determined photometrically after 72 hrs.

In test [5] the test system is Alternaria solani. In words: Alternaria solani growth inhibition in nutrient broth (microtiter plate, photometric, 48 hrs). As for the experimental part: Alternaria solani (Early Blight Tomato/Potato): Conidia of the fungus from cryogenic storage were directly mixed into nutrient broth (PDB potato dextrose broth). A DMSO solution of the test compounds was placed into a microtiter plate (96-well format) and the nutrient broth containing the fungal spores was added to it. The test plates were incubated at 24 C and the inhibition of growth was determined photometrically after 48 hrs.

Regarding `Cc1cc(C2=NOCC(Cc3ccc(Br)cc3C)N2)c(Oc2cccc(Cl)c2F)nn1` (stereo not shown) [Compound A-1.3, 5-[(4-bromo-2-methyl-phenyl)methyl]-3-[3-(3-chloro-2-fluoro-phenoxy)-6-methyl-pyridazin-4-yl]-5,6-dihydro-4H-1,2,4-oxadiazine], the “Observed Activity” value in test [1] (0.02 ppm) turned out to be 20%; in test [1] (0.2 ppm) it was 90%; in test [2] (0.02 ppm), 20%; in test [2] (0.2 ppm), 70%; in test [3] (0.02 ppm) it was 0%; in test [3] (0.2 ppm) it was 0%. The “Observed Activity” value in test [4] (0.2 ppm) came out at 0%.

Consider `CC(Oc1ccc(Cl)cc1Cl)C(=O)NC(C)(C#N)C(C)C` (stereo not shown) [Fenoxanil, fenoxanil], for which the “Observed Activity” value in test [2] (2.22 ppm), in test [2] (6.66 ppm) and in test [2] (20 ppm) was 0% each time.

Consider `CCn1nccc1-c1ccccc1Nc1nc2ccc(F)c(F)c2nc1C` [N-[2-(2-ethylpyrazol-3-yl)phenyl]-5,6-difluoro-3-methyl-quinoxalin-2-amine], for which the “Observed Activity” value turned out to be 20% in test [5] (0.08 ppm); 20% in test [5] (0.246 ppm); 20% in test [5] (0.74 ppm); 0% in test [2] (6.66 ppm); 0% in test [2] (20 ppm).

On to `CCn1nccc1-c1c(Cl)cccc1Cc1cc2ccc(F)c(F)c2nc1C` [3-[[3-chloro-2-(2-ethylpyrazol-3-yl)phenyl]methyl]-7,8-difluoro-2-methyl-quinoline], for which the “Observed Activity” value in test [1] (0.074 ppm) is 20%; in test [1] (0.22 ppm) it was 90%; in test [1] (0.74 ppm), 20%; in test [2] (2 ppm), 0%; in test [2] (6 ppm), 20%.

Regarding `Cn1nnnc1/C(=N\OCc1cccc(NC(=O)OC(C)(C)C)n1)c1ccccc1` [Picarbutrazox, picarbutrazox], the “Observed Activity” value in test [2] (6.66 ppm) and in test [2] (20 ppm) was 0% each time.

Regarding `CCCn1nccc1-c1c(F)cccc1Nc1nc2ccc(F)c(F)c2nc1C` [5,6-difluoro-N-[3-fluoro-2-(2-propylpyrazol-3-yl)phenyl]-3-methyl-quinoxalin-2-amine], the “Observed Activity” value was determined as 20% in test [5] (0.25 ppm); 20% in test [5] (0.74 ppm); 70% in test [1] (0.66 ppm); 0% in test [2] (6.66 ppm); 0% in test [2] (20 ppm).

With `CCCn1nccc1-c1c(Cl)cccc1Nc1cc2ccc(F)c(F)c2nc1C` [N-[3-chloro-2-(2-propylpyrazol-3-yl)phenyl]-7,8-difluoro-2-methyl-quinolin-3-amine], the “Observed Activity” value in test [5] (0.008 ppm) is 0%; in test [5] (0.025 ppm) it was 20%; in test [2] (0.66 ppm), 0%; in test [2] (2 ppm), 0%; in test [4] (0.008 ppm) it was 0%; in test [4] (0.025 ppm), 0%. In addition, the “Observed Activity” value in test [4] (0.074 ppm) and in test [4] (0.22 ppm) was 20% each time.

In the case of `COC(=O)NCc1cc(/C(C)=N/OCc2cccc(C)n2)ccc1Cl` [Pyribencarb, pyribencarb], the “Observed Activity” value in test [1] (0.22 ppm) and in test [2] (0.008 ppm) was 20% each time.

Take `Cc1ccc(CC2CON=C(c3cc(C)nnc3Oc3cccc(Cl)c3F)N2)c(Cl)c1` (stereo not shown) [Compound A-1.1, 3-[3-(3-chloro-2-fluoro-phenoxy)-6-methyl-pyridazin-4-yl]-5-[(2-chloro-4-methyl-phenyl)methyl]-5,6-dihydro-4H-1,2,4-oxadiazine]: the “Observed Activity” value is recorded as 50% in test [5] (0.01 ppm); 20% in test [1] (0.01 ppm); 90% in test [1] (0.1 ppm); 0% in test [4] (0.01 ppm); 0% in test [4] (0.1 ppm).

Take `Cc1ccc(N(SC(F)(Cl)Cl)S(=O)(=O)N(C)C)cc1` [Tolylfluanid, tolylfluanid]: the “Observed Activity” value is listed as 20% in test [1] (0.025 ppm); 50% in test [1] (0.074 ppm); 0% in test [2] (0.025 ppm); 0% in test [2] (0.074 ppm); 90% in test [2] (0.22 ppm); 20% in test [3] (0.22 ppm). Also, the “Observed Activity” value in test [3] (0.66 ppm) stood at 90%.

These data come from US20260226074A1, “FUNGICIDAL COMPOSITIONS” (SYNGENTA CROP PROTECTION AG, priority 2023, published 2026).
